Patent US20190110478A1, “ANTIBACTERIAL COMPOSITION, ANTIBACTERIAL FILM, ANTIBACTERIAL FILM-ATTACHED SUBSTRATE, METHOD FOR MANUFACTURING ANTIBACTERIAL FILM, AND METHOD FOR MANUFACTURING ANTIBACTERIAL FILM-ATTACHED SUBSTRATE” (FUJIFILM Corporation, priority 2016, published 2019)

Test: Viscosity characteristics of water-insoluble nitrogen-containing compound (rotary viscometer)
Assay type: physicochemical
Conditions: 1% by mass solid content in propylene glycol monomethyl ether, 25° C.
Method: In a case in which a water-insoluble nitrogen-containing compound is dissolved in propylene glycol monomethyl ether to obtain a solution having a solid content of 1% by mass, the viscosity of the solution at 25° C. as measured using a rotary viscometer is 10 mPa·s or higher.

## CC(C)(C)c1ccc(O)c(-n2nc3ccccc3n2)c1 [TINUVIN PS]
  Viscosity of solution: 2.1 mPa·s
